Measured values from patent US5200343A, “Method for microbial dehalogenation of haloaliphatic compounds using a sulfate reducing bacteria, desulfomonile tiedjei” (Board of Trustees operating Michigan State University, priority 1991, dated 1993).
Read-outs that look alike come from different tables or passages of the source.

What was measured:
[1] = system: Desulfomonile tiedjei cells; experiment: PCE and TCE dechlorination by resuspended cells induced with 3-fluorobenzoate versus non-induced cells (Table 1, FIG. 1); format: cell-based; conditions: for Mole % recovered, PCE / Mole % recovered, TCE / Mole % recovered, cis-DCE / Total Cl Removed: 2 μg/ml substrate, 37° C., 2 hr; for Mole % recovered, PCE / Mole % recovered, TCE / Mole % recovered, cis-DCE: average of duplicate vials; for Total Cl Removed: calculated from input concentration and Mole % recovered
Method: (§1) Cultures were grown using strict anaerobic technique in a synthetic minimal medium amended with vitamins (DeWeerd, et al, Arch. of Microbiol. 154, 23-30 (1990)), pyruvate at 20 mM, and reduced with 1 mM cysteine and 0.1 mM Na2 S2 O4. The concentration of nicotinamide and 1,4-naphthoquinone were 500 μgl^-1 and 200 μgl^-1, respectively. Thiamine, hemin and lipoic acid were used at 50 μg/liter. To induce 3-chlorobenzoate dechlorination activity, 3-fluorobenzoate was added to 0.1 mM. The complete medium was inoculated with a 1% transfer from homologous medium (without fluorobenzoate). Cultures were grown at 37° C. in the dark for about 14 days for fresh cells or 28 days for starved stationary phase cells.
(§2) Cultures were harvested by centrifugation and resuspended in 20 to 40% of the initial volume in a cold anaerobic assay buffer normally consisting of 50 mM NaCl, 10 mM sodium pyruvate, 10 mM HEPES (N-2[hydroxyethylP]piperazine-N'-[2-ethanesulfonic acid], hemisodium salt Sigma);, 0.00001% resazurin and reduced with 1 mM cysteine-HCl and 1 mM titanium (III) citrate. Resuspended cells were used to completely fill N2 sparged 10 ml serum bottles after which chlorinated ethylenes were added from a 0.5 or 1 mg/ml stock in methanol for PCE and TCE respectively. The vials were immediately sealed with Teflon lined rubber septa and aluminum crimp seals, leaving no headspace. The assays were commenced by transferring the serum bottles to a 37° C. water bath. The assays were terminated at the indicated times by transferring the serum bottles to an ice water bath, where they were stored until analyzed. Protein concentrations were determined by a modification of the Lowry method (Hanson, R. S. and J. A. Phillips, In P. Gerhardt (ed.) Manual of methods for general microbiology. American Society for Microbiology, Washington, D. C. p. 328-364 (1981)).
(§3) Chlorinated ethylenes were monitored with a Tekmar purge and trap unit (model 4000) connected to a Hewlett-Packard GC (Sunnyville, Calif.) equipped with an HP-5 cappillary column (30 m×0.53 mm×2.6 μm film thickness) and flame ionization detector. Samples (5 ml) were purged onto Tenax TA (Supelco, Bellefonte, Pa.) adsorbent with helium (30 ml/min for 16 min.), desorbed (180° C. for 4 min.), and separated using helium as a carrier at 6 ml/min. The temperature program was 30° C. for 8 min, increasing to 200° C. at 4° C./min and followed by an isothermal period of 5 min. The injection and detector temperatures were 220° C. and 300° C., respectively. PCE and its dechlorinated products were identified by comparison with authentic standards.
To further examine the transformation of both PCE and TCE and to determine if dechlorination of TCE also requires induction, a similar experiment was conducted to measure the initial transformation rates of PCE and TCE (Table 1.). […] The extent of transformation of PCE to TCE ([…] in 2H) was considerably faster than the rate of transformation of TCE to DCE ([…] in 2h), as expected from the redox potentials of these reactions (Vogel, T. M., et al., Environ. Sci. Technol. 21:722-736 (1987)) and results from mixed culture systems (Bouwer, E. J., and P. L. McCarty, Appl. Environ. Microbiol. 45:1286-1294 (1983)). The rate of transformation of PCE and TCE were much greater for the induced cultures than for the non-induced cultures.
^a suspensions were amended with PCE or TCE to a final concentration
of 2 μg/ml and incubated at 37° C. for 2 hr. Suspensions of
induced and uninduced cells contained 149 and 153 μg protein per ml
^b Data are presented as the average of duplicate vials with the
sample standard deviation in parenthesis.
^c Calculated from the input concentration of chlorinated ethylenes
and the Mole % of recovered material.

[2] = system: Desulfomonile tiedjei cells; experiment: Effect of different medium reductants and sterilant on PCE dechlorination by induced cells (Table 2); format: cell-based; conditions: PCE 1.66 μg/ml, 37° C., 2 hours
Method: as §1, with “The” for “Cultures were grown using strict anaerobic technique in a synthetic minimal medium amended with vitamins (DeWeerd, et al, Arch. of Microbiol. 154, 23-30 (1990)), pyruvate at 20 mM, and reduced with 1 mM cysteine and 0.1 mM Na2 S2 O4. The”
as §2, with “analyzed.” for “analyzed. Protein concentrations were determined by a modification of the Lowry method (Hanson, R. S. and J. A. Phillips, In P. Gerhardt (ed.) Manual of methods for general microbiology. American Society for Microbiology, Washington, D. C. p. 328-364 (1981)).”
as §3
Data are the average of duplicate vials and […]

[3] = system: Desulfomonile tiedjei cells; experiment: PCE dechlorination by starved stationary phase induced cells with or without pyruvate (Table 3); format: cell-based; conditions: for Mole % recovered, PCE / Mole % recovered, TCE / Mole % recovered, cis-DCE / Mole % recovered, trans-DCE / Total Cl Removed: PCE 1.66 μg/ml, 37° C., 2 hours
Method: as §1, §2, §3
^a Starved stationary phase induced cultures were resuspended at a
concentration of 521 μg protein per ml in buffer without pyruvate,
amended with PCE to a final concentration of 1.66 μg/ml and incubated
at 37° C. for 2 hours. Data are the average of duplicate vials and
^b 0.1 mMole sodium pyruvate was added to duplicate vials before
addition of cell suspensions to give a final concentration of ca. 10 mM

[4] = system: Desulfomonile tiedjei; conditions: cited from earlier work
[5] = system: 3-Chlorobenzoate Dechlorination Activity; experiment: Induction of 3-chlorobenzoate dechlorination activity by growth with 3-chlorobenzoate, analogues, or chloro- and iodobenzoates (Tables 4, 5); format: cell-based, Desulfomonile tiedjei
Method: Table 4. Cultures were grown in the presence of 3-chlorobenzoate or a 3-chlorobenzoate analogue substituted at the 1- or 3- position with the indicated functional groups. After several generations the culture were concentrated, washed and resuspended in anaerobic buffered salts containing 1 mM 3-chlorobenzoate and 10 mM pyruvate (as electron donor). […] After two hours samples were taken for benzoate analysis by HPLC. Values presented are the average of duplicate or triplicate cultures ± sample standard deviation.
Table 5. Chloro- and iodobenzoates were tested as inducers of 3-chlorobenzoate dehalogenation activity as described in the legend to Table 4. All compounds were initially at 500 μM; the 3-halo compounds were amended during growth as they were dehalogenated. Values presented are the average of duplicate or triplicate cultures± sample standard deviation.

[6] = system: Desulfomonile tiedjei cells; experiment: 3-chlorobenzoate dechlorination by starved stationary phase induced cells with or without pyruvate (Table 3); format: cell-based
Method: as §1, with “Cultures were grown at 37° C. in the dark for about 14 days for fresh cells or 28 days for starved stationary phase cells.” left out
as §2, with “Resuspended cells were used to completely fill N2 sparged 10 ml serum bottles after which chlorinated ethylenes were added from a 0.5 or 1 mg/ml stock in methanol for PCE and TCE respectively. The vials were immediately sealed with Teflon lined rubber septa and aluminum crimp seals, leaving no headspace. The assays were commenced by transferring the serum bottles to a 37° C. water bath.” left out, “(1981)). […]” for “(1981)).”

## ClC(Cl)=C(Cl)Cl [PCE, tetrachloroethylene]
[1]; Only cultures pre-induced with 3-fluorobenzoate
  product formation from PCE or TCE: measurable product formation
[1]; cells grown with 0.1 mM 3-fluorobenzoate
  transformation of PCE to TCE and cis-DCE (FIG. 1): Rapid transformation
[1]; induced (+)
  Mole % recovered, PCE: 45.7 Mole %
  Mole % recovered, TCE: 54.3 Mole %
  Mole % recovered, cis-DCE: 0.0 Mole %
  Total Cl Removed: 43.9 μmol/g prot. in 2 h
[1]; induced cells, longer time course
  formation of trans-DCE from PCE: formation of small amounts of trans-DCE
[1]; non-induced (-)
  Mole % recovered, PCE: 100.0 Mole %
  Mole % recovered, TCE: 0.0 Mole %
  Mole % recovered, cis-DCE: 0.0 Mole %
  Total Cl Removed: 0.0 μmol/g prot. in 2 h
[1]; pre-induced with 3-fluorobenzoate
  extent of transformation of PCE to TCE: 43.8 mol g protein ^-1 in 2H
[1]; uninduced cells
  dechlorination of PCE (FIG. 1): no dechlorination was detected
[2]; Formaldehyde + (0.2%)
  Mole % recovered, PCE: 95.0 Mole %
  Mole % recovered, TCE: 5.0 Mole %
  Mole % recovered, cis-DCE: 0.0 Mole %
  Mole % recovered, trans-DCE: 0.0 Mole %
  Total Cl Removed: 1.0 μmol/g prot. in 2 h
[2]; Formaldehyde -
  Mole % recovered, PCE: 0.0 Mole %
  Mole % recovered, TCE: 26.4 Mole %
  Mole % recovered, cis-DCE: 69.4 Mole %
  Mole % recovered, trans-DCE: 4.2 Mole %
  Total Cl Removed: 34.1 μmol/g prot. in 2 h
[2]; reductant Na2 S (1 mM)
  Mole % recovered, PCE: 6.3 Mole %
  Mole % recovered, TCE: 18.6 Mole %
  Mole % recovered, cis-DCE: 70.7 Mole %
  Mole % recovered, trans-DCE: 4.4 Mole %
  Total Cl Removed: 45.4 μmol/g prot. in 2 h
[2]; reductant TiCit
  Mole % recovered, PCE: 0.0 Mole %
  Mole % recovered, TCE: 9.4 Mole %
  Mole % recovered, cis-DCE: 85.8 Mole %
  Mole % recovered, trans-DCE: 4.7 Mole %
  Total Cl Removed: 50.0 μmol/g prot. in 2 h
[3]; pyruvate + (ca. 10 mM)
  Mole % recovered, PCE: 2.1 Mole %
  Mole % recovered, TCE: 44.1 Mole %
  Mole % recovered, cis-DCE: 50.3 Mole %
  Mole % recovered, trans-DCE: 3.5 Mole %
  Total Cl Removed: 29.1 (0.8) μmol/g prot. in 2 h
[3]; pyruvate -
  Mole % recovered, PCE: 78.6 Mole %
  Mole % recovered, TCE: 21.4 Mole %
  Mole % recovered, cis-DCE: 0.0 Mole %
  Mole % recovered, trans-DCE: 0.0 Mole %
  Total Cl Removed: 4.1 (0.3) μmol/g prot. in 2 h
[3]; starved stationary phase cells
  PCE dechlorination in absence of pyruvate relative to presence of pyruvate: about 14%
[4]; Fathepure et al.
  Dechlorination of PCE by D. tiedjei: 2.34 μmolg protein^-1 day^-1
[4]; Suflita et al.
  Dechlorination of PCE by D. tiedjei: 4 μmol/l in five (5) months

## O=C(O)c1cccc(Cl)c1 [3-chlorobenzoate]
[5]; Table 4, inducers at 500 μM except 3-formylbenzoate 100 μM and 3-chlorobenzoate (amended at intervals), assay 1 mM 3-chlorobenzoate, two hours
  Induction Activity (3-chlorobenzoate dechlorination activity): 672 ± 8 nMol/hr/mg protein
[5]; Table 5, inducers initially 500 μM, 3-halo compounds amended during growth
  Induction Activity (3-chlorobenzoate dechlorination activity): 672 ± 8 nMol/hr/mg protein
[6]
  3-chlorobenzoate dechlorination in absence of pyruvate relative to presence of pyruvate: about 12%
